Assays:
[1] = system: FAD-GDH enzyme; experiment: Cyclic voltammetric inhibition assays: FAD-GDH directly on carbon nanotubes, aromatic molecules added in solution; format: biochemical; conditions: 100 mmol L^−1 glucose; for catalytic current when the aromatic molecule is present in solution, versus absence of redox mediator: electrode of Comparative Example 4; for effect on performance of bioelectrocatalysis over time (inhibition of FAD-GDH): added in solution; for effect on catalytic currents (inhibition of FAD-GDH): 200 μmol L^−1 in solution, sampling times of less than three hours
Method: They were obtained with electrodes whose layer of FAD-GDH enzymes is directly deposited on layer 2 of carbon nanotubes in the presence of 100 mmol L^−1 of glucose solution.
The aromatic molecules 9.10-phenanthrenequinone, 1.10-phenanthroline-5.6-dione, phenanthrene and 1.10-phenanthroline are then gradually added in solution.
0 μM PX=CNTs functionalized by FAD-GDH in the presence of a glucose solution at 100 mmol L^−1 and in the absence of any aromatic molecules (X representing the aromatic molecule PLQ (cartridge A) or PQ (cartridge B))
400 μM PX=CNTs functionalized by FAD-GDH in the presence of a glucose solution at 100 mmol L^−1 and 400 μmol L^−1 of an aromatic molecule PLQ (cartridge A) or PQ (cartridge B)
400 μM PX (180 min)=CNTs functionalized by FAD-GDH in the presence of a glucose solution at 100 mmol L^−1 and […] of an aromatic molecule PLQ (cartridge A) or PQ (cartridge B) after incubation in the solution with a duration of 180 minutes.
200 μM PQ=CNTs functionalized by FAD-GDH in the presence of a solution of glucose at 100 mmol L^−1 and 200 μmol L^−1 of an aromatic molecule PQ (cartridge C and D)
200 μM PQ+200 μM PY (180 min)=CNTs functionalized by FAD-GDH in the presence of a glucose solution at 100 mmol L^−1, 200 μmol L^−1 of an aromatic molecule PQ and 200 μmol L^−1 of an aromatic molecule PY after incubation in the solution for a duration of 180 minutes. (Y represents the aromatic molecule PL (cartridge C) or PH (cartridge D)). • PLQ=1.10-phenanthroline-5.6-dione. • PQ=9.10-phenanthrenequinone, • PL=1.10-phenanthroline, • PH=phenanthrene,
The electrode tested was a vitreous carbon electrode (support 1) in which the FAD-GDH enzyme alone was deposited on layer 2 of carbon nanotubes (Comparative Example 4).

[2] = system: FAD-GDH enzyme; experiment: as above; format: biochemical; conditions: 100 mmol L^−1 glucose, 400 μmol L^−1 aromatic molecule
[3] = system: FAD-GDH enzyme; experiment: Cyclic voltammetry of bioelectrodes (carbon nanotubes / aromatic molecule / FAD-GDH) without and with glucose; format: biochemical
Method: In FIG. 4, the following terms have the following meanings: • uCNT=carbon nanotubes alone, • FADGDH=CNTs functionalized by FAD-GDH, • 25 mM glucose=CNTs functionalized by FAD-GDH in the presence of a glucose solution at 25 mmol L^−1, • 25 mM glucose (FAD region)=same as above, including the electroactive region of the FAD-GDH cofactor (FAD) in the measurement window in the presence of a glucose solution at 25 mmol L^−1, • FAD=Flavin Adenine Dinucleotide, • 25 mM glucose=concentration of the glucose solution of 25 mmol L^−1, • PYR-NHS=N-hydroxysuccinimide ester of pyrene-butyric acid, • PYR=pyrene, • 1.4-NQ=1.4-naphthoquinone, • PQ=9.10-phenanthrenequinone, • PL=1.10-phenanthroline, • MPL=5-methyl-1.10-phenanthroline, • PLQ=1.10-phenanthroline-5.6-dione.
The tested electrode was a vitreous carbon electrode (support 1) coated with layer 2 of carbon nanotubes alone (Comparative Example 2) or in which the FAD-GDH enzyme alone was deposited on layer 2 of carbon nanotubes (Comparative Example 4).
The dashed curve denoted 3 represents the cyclic voltammogram obtained with a larger electrochemical window (from −0.600 to 0.100 V vs SCE), in the presence of a glucose solution at 25 mmol L^−1.
In FIG. 4, the cartridge C represents the cyclic voltammograms of the electrode of Comparative Example 6 consisting of a vitreous carbon electrode, of layer 2 of carbon nanotubes functionalized by layer 3 of an aromatic molecule which is 1-pyrenebutyric acid N-hydroxysuccinimide ester (PANHS).
Cartridges D, G and H represent the cyclic voltammograms of the electrodes obtained in Examples 4, 5 and 6 respectively.
Cartridges E, F and I show the cyclic voltammograms obtained with the electrodes obtained in Examples 7, 8 and 1 respectively.

[4] = system: enzyme FAD-GDH; conditions: known; supplier catalog; cited from earlier work

For O=C1C(=O)c2cccnc2-c2ncccc21 [1.10-phenanthroline-5.6-dione], the “catalytic current when the aromatic molecule is present in solution, versus absence of redox mediator” value [1] was “strong increase in the catalytic current”, the “effect on performance of bioelectrocatalysis over time (inhibition of FAD-GDH)” value [1] was “progressive decrease in the performance of bioelectrocatalysis” and the “change of catalytic current after 180 min incubation (inhibition of FAD-GDH)” value [2] was “sharp decrease in the catalytic current”. The “glucose concentration at saturation” value ([3]; aromatic molecule immobilized on carbon nanotube layer with FAD-GDH) was roughly 130 mmol/L, the electrocatalytic current ([3]; aromatic molecule immobilized on carbon nanotube layer with FAD-GDH, potentials higher than 0 V vs SCE, after saturation with glucose) was 600-700 μA and the “electron transfer behavior of the aromatic molecule towards FAD-GDH” value ([3]; non-covalent immobilization on a layer of carbon nanotubes) was “the best redox aromatic molecule”.

In the case of c1cnc2c(c1)ccc1cccnc12 [1.10-phenanthroline], the “change of catalytic current after 180 min incubation together with PQ (inhibition of FAD-GDH)” value ([1]; 200 μmol L^−1 PQ and 200 μmol L^−1 tested molecule, 180 min) is listed as “The catalytic current drops again”, the “effect on performance of bioelectrocatalysis over time (inhibition of FAD-GDH)” value [1] is listed as “progressive decrease in the performance of bioelectrocatalysis” and the “inhibitory activity for FAD-GDH oxidation of glucose” value [4] is listed as “inhibitor of the enzyme FAD-GDH”.

For O=C1C(=O)c2ccccc2-c2ccccc21 [9.10-phenanthrenequinone], the “effect on catalytic currents (inhibition of FAD-GDH)” value [1] was “does not cause a drastic decrease in the catalytic currents”, the “catalytic current when the aromatic molecule is present in solution, versus absence of redox mediator” value [1] was “strong increase of the catalytic current” and the “change of catalytic current after 180 min incubation (inhibition of FAD-GDH)” value [2] was “no decrease in the catalytic current”.

With c1ccc2c(c1)ccc1ccccc12 [phenanthrene] the “effect on catalytic currents (inhibition of FAD-GDH)” value [1] was “does not cause a drastic decrease in the catalytic currents”.

— US11337627B2, “Bioelectrode for detection and/or oxidation of glucose, its production method and device” (CENTRE NATIONAL DE LA RECHERCHE SCIENTIFIQUE, priority 2016, dated 2022)
